Like-named read-outs stand apart in the source and are kept apart here.
What was measured:
CB1 [1] = target: T1, CB1 (Homo sapiens, UniProt P21554); experiment: Radioligand displacement assay on CB1 receptor; format: binding
T1 construct: purchased Perkin Elmer RBHCB1M
Method: (§1) For the CB1 receptor, binding experiments were performed in the presence of 0.39 nM of the radioligand [^3H]CP55,940 (168 Ci/mmol) (Perkin Elmer, Waltham, MA, US) at 30°C in siliconized glass vials together with 7.16 µg of membrane recombinantly over-expressing CB1 (No. RBHCB1M, Perkin Elmer, Waltham, MA, US), which was resuspended in 0.2 mL (final volume) binding-buffer (50 mM TRIS-HCl, 2.5 mM EGTA, 5 mM MgCl2, 0.5 mg/mL fatty acid free BSA, pH 7.4). Test compounds were present at varying concentrations and the nonspecific binding of the radioligand was determined in the presence of 10 µM CP55,940 (Tocris Cookson Ltd., Bristol, UK). After 1.5 h incubation, the suspension was rapidly filtered through 0.05% polyethylenimine pre-soaked GF/C glass fiber filters on a 96-well cell harvester and washed nine times with 0.5 mL ice-cold washing-buffer (50 mM TRIS-HCl, 2.5 mM EGTA, 5 mM MgCl2, 2% BSA, pH 7.4). Radioactivity on filters was measured with a Beckman LS 6500 scintillation counter in 3 mL Ultima Gold scintillation liquid (Perkin Elmer, Waltham, MA, US). Data collected from three independent experiments performed in triplicates were normalized between 100% and 0% specific binding for [^3H]CP55,940. […] Derived from the dissociation constant (KD) of [^3H]CP55,940 and the concentration-dependent displacement (IC50 value), inhibition constants (Ki) of competitor compounds were calculated using the Cheng-Prusoff equation [Ki = IC50/(1+ L/KD)].

[2] = Critical micelle concentration (CMC) measurement, dye micellization; format: physicochemical; conditions: fluorescein dye micellization in water, pH 6.9, room temperature
Method: Dye micellization was carried out with a modified version of the method described by Eliyahu et al., Novel dextran-spermine conjugates as transfecting agents: comparing water-soluble and micellar polymers. […] Experiments were carried out on 96-well microtiter plates (excitation at 485 nm, emission at 535 nm). Since the emission of fluorescein is pH-dependent, the pH of the mixture was kept constant at 6.9. The CMC range was determined as the concentration range where the first statistically significant increase in fluorescence was detected.

FAAH [3] = target: T2, FAAH (Sus scrofa, UniProt Q9TUI8); experiment: Fatty acid amide hydrolase (FAAH) inhibition, pig brain homogenate (assay D); format: biochemical; conditions: 1 µM; pig brain homogenate (assay D)
T2 construct: 165 µl of diluted pig brain homogenate; from tissue; host or cells: pig brain homogenate
T2 sequence (Q9TUI8 1-579): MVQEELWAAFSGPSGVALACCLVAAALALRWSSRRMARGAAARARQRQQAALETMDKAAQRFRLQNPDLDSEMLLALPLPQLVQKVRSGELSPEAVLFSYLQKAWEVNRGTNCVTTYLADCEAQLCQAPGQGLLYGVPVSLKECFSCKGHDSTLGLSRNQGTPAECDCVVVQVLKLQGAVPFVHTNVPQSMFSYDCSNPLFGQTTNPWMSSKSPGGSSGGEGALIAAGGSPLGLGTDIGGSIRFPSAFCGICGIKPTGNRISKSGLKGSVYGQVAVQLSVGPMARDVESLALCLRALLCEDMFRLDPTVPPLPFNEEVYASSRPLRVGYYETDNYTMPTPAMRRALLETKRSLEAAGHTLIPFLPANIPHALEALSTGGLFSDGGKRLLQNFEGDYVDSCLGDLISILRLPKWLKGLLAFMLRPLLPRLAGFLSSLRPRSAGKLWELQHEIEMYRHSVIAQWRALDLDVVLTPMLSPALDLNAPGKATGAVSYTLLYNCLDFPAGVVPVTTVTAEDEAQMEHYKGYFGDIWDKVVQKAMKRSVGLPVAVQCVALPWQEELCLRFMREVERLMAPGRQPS
Method: FAAH activity was assessed using pig brain homogenate according to the method described by Omeir et al., Arachidonoyl ethanolamide-[1,2-14C] as a substrate for anandamide amidase. Life Sci. 1995;56(23-24):1999-2005, and adapted by Fowler et al., Ibuprofen inhibits rat brain deamidation of anandamide at pharmacologically relevant concentrations. Mode of inhibition and structure-activity relationship. J Pharmacol Exp Ther. 1997 Nov;283(2):729-34. Briefly, 10 µl of test compounds at the adequate concentration or solvent were incubated at 37°C for 20 min with 165 µl of diluted pig brain homogenate in 10 mM Tris-HCl and 1 mM EDTA, pH 7.6 (corresponding to 100 µg/ml of total protein), 1% w/v fatty acid free BSA (Sigma, San Louis, MO, US) and 25 µl of a mixture 1:1 of nonradioactive AEA [^3H]-AEA (60 Ci mmol^-1) (concentration in the assay was 2 µM). Successively, 400 µl of a mixture 1:1 (v/v) of methanol:chloroform was added at each sample and, after vigorous vortexing, aqueous and organic phases were separated by centrifugation at 10000 rpm for 10 min. The radioactivity associated to the [^3H]-ethanolamine (produced by FAAH-catalysed breakdown of [^3H]-AEA) was measured upon addition of 3 ml of Ultima Gold scintillation liquid (Perkin Elmer, Waltham, MA, US) to 200 µl of the aqueous (upper) phase, using a Beckman LS6500 scintillation counter. Results were expressed as % of FAAH activity vs. pig brain homogenate treated only with solvent.

[4] = test system: Arachidonoylethanolamide Transport (AEAT); experiment: Cellular uptake of [3H]-AEA in U937 cells (assay C); format: cell-based; conditions: Homo sapiens, U-937; [3H]-AEA uptake, assay C (Tables 2 and 3)
CB2 [5] = target: T3, CB2 (Homo sapiens, UniProt P34972); conditions: read-out: affinity towards CB2 receptors, Ki; Gertsch, Planta Med. 2008; cited from earlier work
CB2 receptors = conditions: Woelkart, Planta Med. 2005; cited from earlier work
CB1 [6] = target: CB1 (Rattus norvegicus, UniProt P20272); conditions: Woelkart, Planta Med. 2005; cited from earlier work
FAAH [7] = conditions: cited from earlier work
PGE2 production = conditions: at 50 µM; LaLone 2007; cited from earlier work
[8] = test system: RAW264.7 mouse macrophage cells; conditions: at 50 µM; LaLone 2007; cited from earlier work
[9] = at 50 µM; Chen 2005; cited from earlier work
CB2 [10] = target: T3, CB2; experiment: Radioligand displacement assay on CB2 receptor; format: binding; parameters: purchased Perkin Elmer RBXCB2M
Method: as §1
For CB2-receptor binding studies 3.8 µg of membrane recombinantly over-expressing CB2 (No. RBXCB2M, Perkin Elmer, Waltham, MA, US) were resuspended in 0.6 mL binding buffer (see above) together with 0.11 nM of the radioligand [^3H]CP55,940. The CB2-binding assay was conducted in the same manner as for CB1.

T3 sequence (P34972 whole entry): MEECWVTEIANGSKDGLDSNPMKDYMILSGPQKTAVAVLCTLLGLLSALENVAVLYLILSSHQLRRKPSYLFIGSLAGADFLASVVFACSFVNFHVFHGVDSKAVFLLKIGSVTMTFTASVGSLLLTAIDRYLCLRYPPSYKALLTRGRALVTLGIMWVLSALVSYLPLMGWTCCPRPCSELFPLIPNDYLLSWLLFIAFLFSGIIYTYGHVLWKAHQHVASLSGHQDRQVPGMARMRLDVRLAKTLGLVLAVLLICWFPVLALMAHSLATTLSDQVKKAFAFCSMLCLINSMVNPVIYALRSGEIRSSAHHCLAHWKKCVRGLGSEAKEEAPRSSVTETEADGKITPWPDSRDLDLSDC
T1 sequence (P21554 whole entry): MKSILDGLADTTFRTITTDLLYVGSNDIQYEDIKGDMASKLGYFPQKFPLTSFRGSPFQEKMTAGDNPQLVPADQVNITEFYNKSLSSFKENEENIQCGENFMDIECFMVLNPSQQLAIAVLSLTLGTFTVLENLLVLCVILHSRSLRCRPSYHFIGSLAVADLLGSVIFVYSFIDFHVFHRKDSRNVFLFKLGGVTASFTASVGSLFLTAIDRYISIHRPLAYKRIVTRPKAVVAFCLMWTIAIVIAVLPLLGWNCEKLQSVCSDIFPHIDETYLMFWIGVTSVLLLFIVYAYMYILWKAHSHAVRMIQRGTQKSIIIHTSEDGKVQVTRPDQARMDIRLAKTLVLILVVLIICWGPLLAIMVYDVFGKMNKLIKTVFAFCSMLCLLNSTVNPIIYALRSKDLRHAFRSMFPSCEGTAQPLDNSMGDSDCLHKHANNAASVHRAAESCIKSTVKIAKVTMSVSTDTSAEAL
CB1 (Rattus norvegicus, UniProt P20272), sequence (P20272 whole entry): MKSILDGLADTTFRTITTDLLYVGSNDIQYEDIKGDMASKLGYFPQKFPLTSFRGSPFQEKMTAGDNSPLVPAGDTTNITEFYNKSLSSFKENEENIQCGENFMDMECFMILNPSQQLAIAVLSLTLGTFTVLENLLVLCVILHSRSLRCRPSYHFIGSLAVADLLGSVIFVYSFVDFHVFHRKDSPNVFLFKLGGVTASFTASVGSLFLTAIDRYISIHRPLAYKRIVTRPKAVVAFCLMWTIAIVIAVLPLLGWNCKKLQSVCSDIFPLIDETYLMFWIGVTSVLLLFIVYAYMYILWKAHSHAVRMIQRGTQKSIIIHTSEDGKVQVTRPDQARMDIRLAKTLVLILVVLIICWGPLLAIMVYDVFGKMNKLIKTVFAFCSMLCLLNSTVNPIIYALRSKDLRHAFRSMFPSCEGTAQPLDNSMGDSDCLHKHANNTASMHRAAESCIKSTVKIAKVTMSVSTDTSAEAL

CCCCCCC/C=C/C=C/C(=O)NCC(C)C [Compound A, (2E,4E)-N-isobutyldodeca-2,4-diene amide]
Ki (CB1 [1]; displacement of 0.39 nM [3H]CP55,940, membrane recombinantly over-expressing CB1, read-out: Receptor affinity Ki CB1): 1940 ± 213 nM | affinity towards CB1 (in words) (CB1 [1]; summary of Table 3): moderate affinity | CMC [2]: <0.5 µM | FAAH inhibition at 1 µM (FAAH [3]): <10 % of control | EC50 [4]: > 10000 nM | Ki (CB2 [5]): < 100 nM | affinity to CB2 receptor (CB2 receptors): single digit micromolar range | affinity to CB1 receptor (CB1 [6]): single digit micromolar range | inhibition of FAAH (FAAH [7]; Gertsch, Planta Med. 2008): did not inhibit | inhibition of FAAH (FAAH [7]; Woelkart, Planta Med. 2005): very weak inhibitor | PGE2 production (PGE2 production): inhibiting | cytotoxicity [8]: No significant cytotoxicity | cell death [9]: 50% | Ki (CB2 [10]; displacement of 0.11 nM [3H]CP55,940, membrane recombinantly over-expressing CB2, read-out: Receptor affinity Ki CB2): 60 ± 7 nM | affinity towards CB2 (in words) (CB2 [10]; summary of Table 3): high affinity

Reference: EP2435019B1, “DODECA-2E,4E-DIENE AMIDES AND THEIR USE AS MEDICAMENTS AND COSMETICS” (Dr. August Wolff GmbH & Co. KG Arzneimittel, priority 2009, dated 2010)
